According to patent publication US8703805B2 (Exelixis Patent Company LLC, priority 2005, dated 2014):

test system: LXRα and/or LXRβ; experiment: LXR/LXRE co-transfection assay (luciferase reporter, CV-1 cells); type: cell-based, human; details: IC50 or EC50 for LXR (LXRα and/or LXRβ, not distinguished), tested as described in Example 109, CV-1 cells
Outline: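 Transient co-transfection of CV-1 cells with full-length human LXRα or LXRβ plus RXRα expression plasmids and an LXREx1-Tk-luciferase reporter; compounds (10 μM screen, ≤1% DMSO) incubated 20 h at 37 °C. Luminescence read after lysis; EC50/IC50 from 8-point half-log curves, efficacy relative to a high control or DMSO.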

Compound | EC50 [nM]
CC(C)(O)c1cc(-c2ccc(-c3cccc(S(C)(=O)=O)c3)s2)n(-c2cc(Cl)ccc2Cl)n1 [Example 1279, 2-[1-(2,5-dichlorophenyl)-5-{5-[3-(methylsulfonyl)phenyl]-2-thienyl}-1H-pyrazol-3-yl]propan-2-ol] | 1000 to 10000
CC(C)(O)c1cc(-c2ccc(-c3cccc(O)c3)cc2)n(-c2ccccc2Cl)n1 [Example 1285, 4′-[1-(2-chlorophenyl)-3-(1-hydroxy-1-methylethyl)-1H-pyrazol-5-yl]biphenyl-3-ol] | 1000 to 10000
CC(C)(O)c1cc(-c2ccc(-c3cccc(S(C)(=O)=O)c3)s2)n(-c2cc(F)ccc2F)n1 [Example 1322, 2-[1-(2,5-difluorophenyl)-5-{5-[3-(methylsulfonyl)phenyl]-2-thienyl}-1H-pyrazol-3-yl]propan-2-ol] | 1000 to 10000
CS(=O)(=O)c1cc(-c2ccc(-c3cc(C(F)(F)F)nn3-c3cc(Cl)ccc3Cl)s2)ccc1OCCN1CCOCC1 [Example 1259, 4-(2-{[4-{5-[1-(2,5-dichlorophenyl)-3-(trifluoromethyl)-1H-pyrazol-5-yl]-2-thienyl}-2-(methylsulfonyl)phenyl]oxy}ethyl)morpholine] | 1000 to 10000
CS(=O)(=O)c1cccc(-c2ccc(-c3cc(C(=O)NCCN4CCOCC4)nn3-c3ccccc3Cl)s2)c1 [Example 590, 1-(2-chlorophenyl)-5-{5-[3-(methylsulfonyl)phenyl]-2-thienyl}-N-(2-morpholin-4-ylmethyl)-1H-pyrazole-3-carboxamide] | 1000 to 10000
CC(C)(O)c1cc(-c2ccc(-c3cccc(S(C)(=O)=O)c3)s2)n(-c2ccc(Cl)c(Cl)c2)n1 [Example 1324, 2-[1-(3,4-dichlorophenyl)-5-{5-[3-(methylsulfonyl)phenyl]-2-thienyl}-1H-pyrazol-3-yl]propan-2-ol] | 1000 to 10000
Cc1cc(-c2cc(C(C)(C)O)nn2-c2c(Cl)cccc2Cl)ccc1-c1cccc(S(C)(=O)=O)c1 [Example 1398, 2-(1-(2,6-dichlorophenyl)-5-(2-methyl-3′-(methylsulfonyl)biphenyl-4-yl)-1H-pyrazol-3-yl)propan-2-ol] | 1000 to 10000
CS(=O)(=O)c1cccc(-c2ccc(-c3cc(C(=O)NCC(F)(F)F)nn3-c3ncccc3C(F)(F)F)s2)c1 [Example 1236, 5-{5-[3-(methylsulfonyl)phenyl]-2-thienyl}-N-(2,2,2-trifluoroethyl)-1-[3-(trifluoromethyl)pyridin-2-yl]-1H-pyrazole-3-carboxamide] | 1000 to 10000
CC(C)(O)c1cc(-c2cccc(F)c2F)n(-c2ccc(-c3cccc(S(C)(=O)=O)c3)cc2F)n1 [Example 121, 2-(5-(2,3-difluorophenyl)-1-(3-fluoro-3′-(methylsulfonyl)biphenyl-4-yl)-1H-pyrazol-3-yl)propan-2-ol] | 1000 to 10000
CC(C)(O)c1cc(-c2ccc(-c3cccc(S(C)(=O)=O)c3)cc2Cl)n(-c2cnccc2C(F)(F)F)n1 [Example 117, 2-(5-(3-chloro-3′-(methylsulfonyl)biphenyl-4-yl)-1-(4-(trifluoromethyl)pyridin-3-yl)-1H-pyrazol-3-yl)propan-2-ol] | 1000 to 10000
CC(C)(O)c1cc(-c2ccc(-c3cccc(S(C)(=O)=O)c3)s2)n(-c2ccncc2)n1 [Example 1343, 2-(5-{5-[3-(methylsulfonyl)phenyl]-2-thienyl}-1-pyridin-4-yl-1H-pyrazol-3-yl)propan-2-ol] | 1000 to 10000
CS(=O)(=O)CCNC(=O)c1ccc(-c2cc(C(F)(F)F)nn2-c2ccccc2Cl)cc1 [Example 1364, 4-[1-(2-chlorophenyl)-3-(trifluoromethyl)-1H-pyrazol-5-yl]-N-[2-(methylsulfonyl)ethyl]benzamide] | 1000 to 10000
CS(=O)(=O)c1cccc(-c2ccc(-c3cc(C(=O)O)nn3-c3ccccc3C(F)(F)F)s2)c1 [Example 1193, 5-{5-[3-(methylsulfonyl)phenyl]-2-thienyl}-1-[2-(trifluoromethyl)phenyl]-1H-pyrazole-3-carboxylic acid] | 1000 to 10000
CCN(CC)CCN(C)C(=O)c1cc(-c2ccc(-c3cccc(S(C)(=O)=O)c3)s2)n(-c2ccccc2Cl)n1 [Example 1140, 1-(2-chlorophenyl)-N-[2-(diethylamino)ethyl]-N-methyl-5-{5-[3-(methylsulfonyl)phenyl]-2-thienyl}-1H-pyrazole-5-carboxamide] | 1000 to 10000

Results, then the molecule that gave them:

EC50 [nM] | Compound
< 1000 | CC(C)(O)c1nn(-c2ccccc2OC(F)(F)F)c(-c2ccc(-c3cccc(S(C)(=O)=O)c3)s2)c1Cl [Example 1367, 2-(4-chloro-5-{5-[3-(methylsulfonyl)phenyl]-2-thienyl}-1-{2-[(trifluoromethyl)oxy]phenyl}-1H-pyrazol-3-yl)propan-2-ol]
< 1000 | CS(=O)(=O)c1cccc(-c2ccc(-c3cc(C(=O)N4CCCC4)nn3-c3ccccc3Cl)s2)c1 [Example 1129, 1-(2-chlorophenyl)-5-{5-[3-(methylsulfonyl)phenyl]-2-thienyl}-3-(pyrrolidin-1-ylcarbonyl)-1H-pyrazole]
1000 to 10000 | CC(C)(O)c1cc(-c2ccc(-c3cccc(C(F)(F)F)c3)cc2)n(-c2ccccc2Cl)n1 [Example 1287, 2-{1-(2-chlorophenyl)-5-[3′-(trifluoromethyl)biphenyl-4-yl]-1H-pyrazol-3-yl}propan-2-ol]
< 1000 | CC(C)(O)c1nn(-c2ccncc2Cl)c(-c2ccc(-c3cccc(S(C)(=O)=O)c3)s2)c1Cl [Example 125, 2-(4-chloro-1-(3-chloropyridin-4-yl)-5-(5-(3-(methylsulfonyl)phenyl)thiophen-2-yl)-1H-pyrazol-3-yl)propan-2-ol]
< 1000 | Cc1cc(-c2cccc(S(C)(=O)=O)c2)ccc1-c1c(Cl)c(C(C)(C)O)nn1-c1c(Cl)cccc1Cl [Example 1386, 2-(4-chloro-1-(2,6-dichlorophenyl)-5-(3-methyl-3′-(methylsulfonyl)biphenyl-4-yl)-1H-pyrazol-3-yl)propan-2-ol]
1000 to 10000 | CC(=O)c1cc(-c2ccccc2Cl)n(-c2ccc(-c3cccc(S(C)(=O)=O)c3)nc2)n1 [Example 1249, 1-[5-(2-chlorophenyl)-1-{6-[3-(methylsulfonyl)phenyl]pyridin-3-yl}-1H-pyrazol-3-yl]ethanone]
1000 to 10000 | CC(C)(O)c1cc(-c2ccc(-c3cccc(S(C)(=O)=O)c3)s2)n(-c2ccc(F)cc2)n1 [Example 1263, 2-[1-(4-fluorophenyl)-5-{5-[3-(methylsulfonyl)phenyl]-2-thienyl}-1H-pyrazol-3-yl]propan-2-ol]
< 1000 | Cc1cc(-c2cccc(S(C)(=O)=O)c2)ccc1-c1cc(C(C)(C)O)nn1Cc1cccc(Cl)c1Cl [Example 1384, 2-(1-(2,3-dichlorobenzyl)-5-(3-methyl-3′-(methylsulfonyl)biphenyl-4-yl)-1H-pyrazol-3-yl)propan-2-ol]
< 1000 | CC(O)c1cc(-c2ccc(-c3cccc(S(C)(=O)=O)c3)s2)n(-c2ccccc2Cl)n1 (stereo not drawn) [Example 1157, 1-[1-(2-chlorophenyl)-5-{5-[3-(methylsulfonyl)phenyl]-2-thienyl}-1H-pyrazol-3-yl]ethanol]
1000 to 10000 | CC(C)(O)c1cc(-c2ccc(-c3cccc(S(C)(=O)=O)c3)s2)n(-c2cccc(C(F)(F)F)c2O)n1 [Example 1338, 2-[3-(1-hydroxy-1-methylethyl)-5-{5-[3-(methylsulfonyl)phenyl]-2-thienyl}-1H-pyrazol-1-yl]-6-(trifluoromethyl)phenol]
< 1000 | CN(C)CCCN(C)C(=O)c1cc(-c2ccc(-c3cccc(S(C)(=O)=O)c3)s2)n(-c2ccccc2Cl)n1 [Example 588, 1-(2-chlorophenyl)-N-[3-(dimethylamino)propyl]-N-methyl-5-{5-[3-(methylsulfonyl)phenyl]-2-thienyl}-1H-pyrazole-3-carboxamide]
< 1000 | CS(=O)(=O)c1cccc(-c2ccc(-c3cc(C4(C#N)CCCC4)nn3-c3ccccc3Cl)s2)c1 [Example 1191, 1-[1-(2-chlorophenyl)-5-{5-[3-(methylsulfonyl)phenyl]-2-thienyl}-1H-pyrazol-3-yl]cyclopentanecarbonitrile]
< 1000 | CC(C)(O)c1cc(-c2ccc(-c3cccc(S(C)(=O)=O)c3)cc2Cl)n(Cc2cccc(Cl)c2Cl)n1 [Example 1402, 2-(5-(3-chloro-3′-(methylsulfonyl)biphenyl-4-yl)-1-(2,3-dichlorobenzyl)-1H-pyrazol-3-yl)propan-2-ol]
< 1000 | CC(C)(O)c1cc(-c2ccc(-c3cccc(S(C)(=O)=O)c3)s2)n(-c2cccc(F)c2F)n1 [Example 1326, 2-[1-(2,3-difluorophenyl)-5-{5-[3-(methylsulfonyl)phenyl]-2-thienyl}-1H-pyrazol-3-yl]propan-2-ol]
< 1000 | CC(C)(O)c1nn(-c2ccccc2C(F)(F)F)c(-c2ccc(-c3cccc(S(C)(=O)=O)c3)s2)c1Br [Example 1349, 2-(4-bromo-5-{5-[3-(methylsulfonyl)phenyl]-2-thienyl}-1-[2-(trifluoromethyl)phenyl]-1H-pyrazol-3-yl)propan-2-ol]
< 1000 | CCc1ccccc1-n1nc(C(C)(C)O)cc1-c1ccc(-c2cccc(S(C)(=O)=O)c2)s1 [Example 1329, 2-[1-(2-ethylphenyl)-5-{5-[3-(methylsulfonyl)phenyl]-2-thienyl}-1H-pyrazol-3-yl]propan-2-ol]
< 1000 | CCN(Cc1ccncc1)Cc1cc(-c2ccc(-c3cccc(S(C)(=O)=O)c3)s2)n(-c2ccccc2Cl)n1 [Example 485, N-{[1-(2-chlorophenyl)-5-{5-[3-(methylsulfonyl)phenyl]-2-thienyl}-1H-pyrazol-3-yl]methyl}-N-(pyridin-4-ylmethyl)ethanamine]
< 1000 | CS(=O)(=O)c1cccc(-c2ccc(-c3cc(C(F)(F)F)nn3CCN3CCOCC3)cc2)c1 [Example 1222, 4-(2-{5-[3′-(methylsulfonyl)phenyl-4-yl]-3-(trifluoromethyl)-1H-pyrazol-1-yl}ethyl)morpholine]
< 1000 | CCC(O)c1cc(-c2ccc(-c3cccc(S(C)(=O)=O)c3)s2)n(-c2ccccc2Cl)n1 (stereo not drawn) [Example 1175, 1-[1-(2-chlorophenyl)-5-{5-[3-(methylsulfonyl)phenyl]-2-thienyl}-1H-pyrazol-3-yl]propan-1-ol]
